Assay results from US9850283B2, “Macrocyclic inhibitors of the PD-1/PD-L1 and CD80(B7-1)/PD-L1 protein/protein interactions” (BRISTOL-MYERS SQUIBB COMPANY, priority 2013, dated 2017).
Positions of bridges follow the written chain, without caps; N, C: chain ends. Non-standard residues stand in square brackets, D forms with d. Residues, ends and D or L forms follow the SMILES beside them. ξ: configuration not given here. Phe(F5) = N[C@@H](Cc1c(F)c(F)c(F)c(F)c1F)C(=O)O; Bta = N[C@@H](Cc1csc2ccccc12)C(=O)O; cisHyp = O=C(O)[C@@H]1C[C@H](O)CN1; ξPro(4,4-F2) = O=C(O)C1CC(F)(F)CN1; ξW = NC(Cc1c[nH]c2ccccc12)C(=O)O; NMeNle = CCCC[C@H](NC)C(=O)O; NMeA = CN[C@@H](C)C(=O)O; Orn = NCCC[C@H](N)C(=O)O; Dap = NC[C@H](N)C(=O)O; Sar = CNCC(=O)O

Tests used:
[1] = molecular target: T1, LK35.2-hPD-L1 cells / PE-labeled PD-1-Ig (Homo sapiens, UniProt Q9NZQ7); experiment: LK35.2-hPD-L1 cell binding high-content screening assay; assay type: cell-based; details: cluster symbol; cell line of CBA not given (LK35.2-hPD-L1 or 293T-hPD-L1); read-out: CBA IC50 cluster
T1 construct: expressed in transfected cells; host or cells: LK35.2 mouse B cell line
Procedure, shortened: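 Fluorescent PD-1-Ig binding to PD-L1-expressing LK35.2 cells, imaged after washing. Conditions: 1 nM PE-PD-1-Ig, 37 °C, 1 h, RPMI with 10% fetal calf serum.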

Human PD-L1/PD-1 = molecular target: T2, Human PD-L1/PD-1 (Homo sapiens, UniProt Q9NZQ7); experiment: HTRF PD-1-Ig/PD-L1-His binding assay (human PD-L1); details: cluster symbol; read-out: HTRF IC50 cluster
T2 construct: made in house; host or cells: HEK293T
Procedure, shortened: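 The time-resolved fluorescence signal comes from Eu-cryptate anti-Ig (1 nM) and APC anti-His (20 nM) antibodies bound to a PD-1-Ig/PD-L1-His complex. Both partners lack transmembrane regions.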

T1 sequence (Q9NZQ7 19-290): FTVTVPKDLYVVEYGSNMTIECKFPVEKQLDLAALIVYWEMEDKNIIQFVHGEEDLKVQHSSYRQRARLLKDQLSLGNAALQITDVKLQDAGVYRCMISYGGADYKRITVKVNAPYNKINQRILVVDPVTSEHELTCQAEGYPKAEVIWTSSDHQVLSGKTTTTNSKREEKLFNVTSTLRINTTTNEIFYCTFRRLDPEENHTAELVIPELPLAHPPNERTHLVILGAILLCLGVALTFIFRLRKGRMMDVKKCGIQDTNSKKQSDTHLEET
T2 sequence (Q9NZQ7 with tags, fused parts or gaps): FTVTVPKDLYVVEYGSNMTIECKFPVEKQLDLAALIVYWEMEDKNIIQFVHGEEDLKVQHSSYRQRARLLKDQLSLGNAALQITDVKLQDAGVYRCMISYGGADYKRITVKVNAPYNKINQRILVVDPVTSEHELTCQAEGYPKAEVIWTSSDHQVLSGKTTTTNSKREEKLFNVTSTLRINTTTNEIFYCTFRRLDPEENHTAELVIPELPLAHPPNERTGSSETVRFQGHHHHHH

| SMILES | IC50 [1] [nM] | IC50 (Human PD-L1/PD-1) [nM] |
| --- | --- | --- |
| C=CCCCCC[C@H]1C(=O)N(C)[C@@H](CCCCCC=C)C(=O)N[C@@H](CCCNC(=N)N)C(=O)N[C@H](C(=O)NCC(N)=O)CSCC(=O)N[C@@H](Cc2ccccc2)C(=O)N(C)[C@@H](C)C(=O)N[C@@H](CC(N)=O)C(=O)N2CCC[C@H]2C(=O)N[C@@H](Cc2cnc[nH]2)C(=O)N[C@@H](CC(C)C)C(=O)N(C)CC(=O)N[C@@H](Cc2c[nH]c3ccccc23)C(=O)N[C@@H](CO)C(=O)N[C@@H](Cc2c[nH]c3ccccc23)C(=O)N1C [Example 1047] | > 74.3 | > 30.5 |
| CCCC[C@H]1C(=O)N(C)[C@@H](CCCC)C(=O)N[C@@H](CCCNC(=N)N)C(=O)N[C@H](C(=O)NCC(N)=O)CSCC(=O)N[C@@H](Cc2ccc(O)cc2)C(=O)N(C)[C@@H](C)C(=O)N[C@@H](CC(N)=O)C(=O)N2CC(F)(F)CC2C(=O)N[C@@H](Cc2cnc[nH]2)C(=O)N[C@@H](CC(C)C)C(=O)N2CCC[C@H]2C(=O)NC(Cc2c[nH]c3ccccc23)C(=O)N[C@@H](CO)C(=O)N[C@@H](Cc2csc3ccccc23)C(=O)N1C (stereo partly drawn) [Example 1048] ({CH2CO}-Y[NMeA]N[ξPro(4,4-F2)]HLP[ξW]S[Bta][NMeNle][NMeNle]RCG-NH2; thioether N-14) | 0.158 to 4.71 | 6.76 to 30.3 |
| CCCC[C@H]1C(=O)N(C)[C@@H](CCCC)C(=O)N[C@@H](C)C(=O)N[C@H](C(=O)NCC(N)=O)CSCC(=O)N[C@@H](Cc2ccc(O)cc2)C(=O)N(C)[C@@H](C)C(=O)N[C@@H](CC(N)=O)C(=O)N2CCC[C@H]2C(=O)N[C@@H](Cc2cnc[nH]2)C(=O)N[C@@H](CC(C)C)C(=O)N2CCC[C@H]2C(=O)N[C@@H](Cc2c[nH]c3ccccc23)C(=O)N[C@@H](CO)C(=O)N[C@@H](Cc2csc3ccccc23)C(=O)N1C [Example 1049] ({CH2CO}-Y[NMeA]NPHLPWS[Bta][NMeNle][NMeNle]ACG-NH2; thioether N-14) | 0.158 to 4.71 | 6.76 to 30.3 |
| CCCC[C@H]1C(=O)N(C)[C@@H](CCCC)C(=O)N[C@@H](C)C(=O)N[C@H](C(=O)NCC(N)=O)CSCC(=O)N[C@@H](Cc2ccc(O)cc2)C(=O)N(C)[C@@H](C)C(=O)N[C@@H](CC(N)=O)C(=O)N2CCC[C@H]2C(=O)N[C@@H](Cc2cnc[nH]2)C(=O)N[C@@H](CC(C)C)C(=O)N2CCC[C@H]2C(=O)N[C@@H](Cc2c[nH]c3ccccc23)C(=O)N[C@@H](Cc2ccc(O)cc2)C(=O)N[C@@H](Cc2csc3ccccc23)C(=O)N1C [Example 1050] ({CH2CO}-Y[NMeA]NPHLPWY[Bta][NMeNle][NMeNle]ACG-NH2; thioether N-14) | 4.78 to 72.9 | > 30.5 |
| CCCC[C@H]1C(=O)N(C)[C@@H](CCCC)C(=O)N[C@@H](CCCN)C(=O)N[C@H](C(=O)NCC(N)=O)CSCC(=O)N[C@@H](Cc2ccc(O)cc2)C(=O)N(C)[C@@H](C)C(=O)N[C@@H](CC(N)=O)C(=O)N2CCC[C@H]2C(=O)N[C@@H](Cc2cnc[nH]2)C(=O)N[C@@H](CC(C)C)C(=O)N2C[C@@H](O)C[C@H]2C(=O)N[C@@H](Cc2c[nH]c3ccccc23)C(=O)N[C@@H](CO)C(=O)N[C@@H](Cc2csc3ccccc23)C(=O)N1C [Example 1051] ({CH2CO}-Y[NMeA]NPHL[cisHyp]WS[Bta][NMeNle][NMeNle][Orn]CG-NH2; thioether N-14) | 0.158 to 4.71 | 6.76 to 30.3 |
| CCCC[C@H]1C(=O)N(C)[C@@H](CCCC)C(=O)N[C@@H](CCCNC(=N)N)C(=O)N[C@H](C(=O)NCC(N)=O)CSCC(=O)N[C@@H](Cc2ccc(O)cc2)C(=O)N(C)[C@@H](C)C(=O)N[C@@H](CC(N)=O)C(=O)N[C@@H](Cc2cnc[nH]2)C(=O)N2CCC[C@H]2C(=O)N[C@@H](CC(C)C)C(=O)N2CCC[C@H]2C(=O)N[C@@H](Cc2c[nH]c3ccccc23)C(=O)N[C@@H](CO)C(=O)N[C@@H](Cc2csc3ccccc23)C(=O)N1C [Example 1052] ({CH2CO}-Y[NMeA]NHPLPWS[Bta][NMeNle][NMeNle]RCG-NH2; thioether N-14) | > 74.3 | > 30.5 |
| CCCC[C@H]1C(=O)N(C)[C@@H](CCCC)C(=O)N[C@@H](CCCNC(=N)N)C(=O)N[C@H](C(=O)NCC(N)=O)CSCC(=O)N[C@@H](Cc2ccccc2)C(=O)N(C)[C@@H](C)C(=O)N[C@@H](CC(N)=O)C(=O)N2CCC[C@H]2C(=O)N[C@@H](Cc2cnc[nH]2)C(=O)NCC(=O)N(C)CC(=O)N[C@@H](Cc2c[nH]c3ccccc23)C(=O)N[C@@H](CO)C(=O)N[C@@H](Cc2c[nH]c3ccccc23)C(=O)N1C [Example 1053] ({CH2CO}-F[NMeA]NPHG[Sar]WSW[NMeNle][NMeNle]RCG-NH2; thioether N-14) | > 74.3 | > 30.5 |

Results, then the compound that gave them:

| IC50 [1] [nM] | IC50 (Human PD-L1/PD-1) [nM] | SMILES |
| --- | --- | --- |
| 4.78 to 72.9 | 0.385 to 6.74 | CCCC[C@H]1C(=O)N(C)[C@@H](CCCC)C(=O)N[C@@H](CCCNC(=N)N)C(=O)N[C@H](C(=O)NCC(N)=O)CSCC(=O)N[C@@H](Cc2ccccc2)C(=O)N(C)[C@@H](C)C(=O)N[C@@H](CC(N)=O)C(=O)N2CCC[C@H]2C(=O)N[C@@H](Cc2cnc[nH]2)C(=O)N[C@@H](CCC(=O)O)C(=O)N(C)CC(=O)N[C@@H](Cc2c[nH]c3ccccc23)C(=O)N[C@@H](CO)C(=O)N[C@@H](Cc2c[nH]c3ccccc23)C(=O)N1C [Example 1054] ({CH2CO}-F[NMeA]NPHE[Sar]WSW[NMeNle][NMeNle]RCG-NH2; thioether N-14) |
| 4.78 to 72.9 | 6.76 to 30.3 | CCCC[C@H]1C(=O)N(C)[C@@H](CCCC)C(=O)N[C@@H](CCCN)C(=O)N[C@H](C(=O)NCC(N)=O)CSCC(=O)N[C@@H](Cc2ccccc2)C(=O)N(C)[C@@H](C)C(=O)N[C@@H](CC(N)=O)C(=O)N2CCC[C@H]2C(=O)N[C@@H](Cc2cnc[nH]2)C(=O)N[C@@H](CC(C)C)C(=O)N(C)CC(=O)N[C@@H](Cc2c[nH]c3ccccc23)C(=O)N[C@@H](CO)C(=O)N[C@@H](Cc2c[nH]c3ccccc23)C(=O)N1C [Example 1055] ({CH2CO}-F[NMeA]NPHL[Sar]WSW[NMeNle][NMeNle][Orn]CG-NH2; thioether N-14) |
| 4.78 to 72.9 | 6.76 to 30.3 | CCCC[C@H]1C(=O)N(C)[C@@H](CCCC)C(=O)N[C@@H](CC(=O)O)C(=O)N[C@H](C(=O)NCC(N)=O)CSCC(=O)N[C@@H](Cc2ccccc2)C(=O)N(C)[C@@H](C)C(=O)N[C@@H](CC(=O)O)C(=O)N2CCC[C@H]2C(=O)N[C@@H](Cc2cnc[nH]2)C(=O)N[C@@H](CCCNC(=N)N)C(=O)N(C)CC(=O)N[C@@H](Cc2c[nH]c3ccccc23)C(=O)N[C@@H](CCCNC(=N)N)C(=O)N[C@@H](Cc2c[nH]c3ccccc23)C(=O)N1C [Example 1056] ({CH2CO}-F[NMeA]DPHR[Sar]WRW[NMeNle][NMeNle]DCG-NH2; thioether N-14) |
| > 74.3 | > 30.5 | CCCC[C@H]1C(=O)N[C@@H](CCCNC(=N)N)C(=O)N[C@H](C(=O)NCC(N)=O)CSCC(=O)N[C@@H](Cc2ccccc2)C(=O)N(C)[C@@H](C)C(=O)N[C@@H](CC(N)=O)C(=O)N2CCC[C@H]2C(=O)N[C@@H](Cc2cnc[nH]2)C(=O)N[C@@H](CC(C)C)C(=O)N(C)CC(=O)N[C@@H](Cc2c[nH]c3ccccc23)C(=O)N[C@@H](CO)C(=O)N[C@@H](Cc2c[nH]c3ccccc23)C(=O)N[C@@H](C)C(=O)N1C [Example 1057] (HELM PEPTIDE1{[O=C(C[*:3])[*:2]].F.[meA].N.P.H.L.[Sar].W.S.W.A.[CCCC[C@@H](C(=O)[*:2])N(C)[*:1]].R.C.G.[am]}$PEPTIDE1,PEPTIDE1,1:R3-15:R3$$$V2.0) |
| > 74.3 | > 30.5 | CCCC[C@H]1C(=O)N[C@@H](CCCNC(=N)N)C(=O)N[C@H](C(=O)NCC(N)=O)CSCC(=O)N[C@@H](Cc2ccccc2)C(=O)N(C)[C@@H](C)C(=O)N[C@@H](CC(N)=O)C(=O)N2CCC[C@H]2C(=O)N[C@@H](Cc2cnc[nH]2)C(=O)N[C@@H](CC(C)C)C(=O)N(C)CC(=O)N[C@@H](Cc2c[nH]c3ccccc23)C(=O)N[C@@H](CO)C(=O)N[C@@H](Cc2c[nH]c3ccccc23)C(=O)N[C@@H](Cc2c(F)c(F)c(F)c(F)c2F)C(=O)N1C [Example 1058] ({CH2CO}-F[NMeA]NPHL[Sar]WSW[Phe(F5)][NMeNle]RCG-NH2; thioether N-14) |
| > 74.3 | > 30.5 | CCCC[C@H]1C(=O)N(C)[C@@H](CCCC)C(=O)N[C@@H](CCCNC(=N)N)C(=O)N[C@H](C(=O)NCC(N)=O)CSCC(=O)N[C@@H](Cc2ccccc2)C(=O)N(C)[C@@H](C)C(=O)N[C@@H](CC(N)=O)C(=O)N2CCC[C@H]2C(=O)N[C@@H](CCCN)C(=O)N[C@@H](CC(C)C)C(=O)N(C)CC(=O)N[C@@H](Cc2c[nH]c3ccccc23)C(=O)N[C@@H](CO)C(=O)N[C@@H](Cc2c[nH]c3ccccc23)C(=O)N1C [Example 1059] ({CH2CO}-F[NMeA]NP[Orn]L[Sar]WSW[NMeNle][NMeNle]RCG-NH2; thioether N-14) |
| 4.78 to 72.9 | 6.76 to 30.3 | CCCC[C@H]1C(=O)N(C)[C@@H](CCCC)C(=O)N[C@@H](CCCNC(=N)N)C(=O)N[C@H](C(=O)NCC(N)=O)CSCC(=O)N[C@@H](Cc2ccccc2)C(=O)N(C)[C@@H](C)C(=O)N[C@@H](CC(N)=O)C(=O)N2CCC[C@H]2C(=O)N[C@@H](CN)C(=O)N[C@@H](CC(C)C)C(=O)N(C)CC(=O)N[C@@H](Cc2c[nH]c3ccccc23)C(=O)N[C@@H](CO)C(=O)N[C@@H](Cc2c[nH]c3ccccc23)C(=O)N1C [Example 1060] ({CH2CO}-F[NMeA]NP[Dap]L[Sar]WSW[NMeNle][NMeNle]RCG-NH2; thioether N-14) |
| > 74.3 | > 30.5 | CCCC[C@H]1C(=O)N(C)[C@@H](CCCC)C(=O)N[C@@H](CCCNC(=N)N)C(=O)N[C@H](C(=O)NCC(N)=O)CSCC(=O)N[C@@H](Cc2ccccc2)C(=O)N(C)[C@@H](C)C(=O)N[C@@H](CC(N)=O)C(=O)N2CCC[C@H]2C(=O)N[C@@H](Cc2cnc[nH]2)C(=O)N[C@@H](CC(C)C)C(=O)N(C)CC(=O)N[C@@H](Cc2c[nH]c3ccccc23)C(=O)N[C@H](C)C(=O)N[C@@H](Cc2c[nH]c3ccccc23)C(=O)N1C [Example 1061] ({CH2CO}-F[NMeA]NPHL[Sar]W[dA]W[NMeNle][NMeNle]RCG-NH2; thioether N-14) |
